This is an account of results in ChEMBL document CHEMBL1128109, “Phenolic replacements for cysteine in farnesyl transferase inhibitors based on CVFM” (Bioorg Med Chem Lett, 1995).

For orientation: IC50 means the concentration at which inhibition is half-maximal.

For the first assay, the target named is T1, Protein farnesyltransferase (Rattus norvegicus, UniProt Q02293+Q04631). Description: Inhibition of farnesyl transferase. The class given is protein-complex assay.
In turn, `CC[C@H](C)[C@H](NC(=O)[C@@H](NC(=O)[C@@H](N)CO)C(C)C)C(=O)N[C@@H](CCSC)C(=O)O` yielded an IC50 of over 100 µM.

On to `CSCC[C@H](NC(=O)[C@H](Cc1ccccc1)NC[C@@H](NCc1cc(Cl)ccc1O)C(C)C)C(=O)O`, for which half-maximal inhibition (IC50) was put at 2.3 µM.

`CSCC[C@H](NC(=O)[C@H](Cc1ccccc1)NC(=O)[C@@H](NCc1ncccc1O)C(C)C)C(=O)O` registered an IC50 of 30 µM.

`CCCOC(=O)c1ccc(O)c(CN[C@H](C(=O)N[C@@H](Cc2ccccc2)C(=O)N[C@@H](CCSC)C(=O)O)C(C)C)c1` gave an IC50 of about 100 µM.

Turning to `CSCC[C@H](NC(=O)[C@H](Cc1ccccc1)NC(=O)[C@@H](NCc1cccc(O)c1)C(C)C)C(=O)O`, the 50% inhibitory concentration (IC50) amounted to 13 µM.

The compound `CSCC[C@H](NC(=O)[C@H](Cc1ccccc1)NC(=O)[C@@H](NC(c1ncccc1O)c1ncccc1O)C(C)C)C(=O)O` came in with an IC50 of 30 µM.

Compound `CSCC[C@H](NC(=O)[C@H](Cc1ccccc1)NC(=O)[C@@H](NCc1ccccc1)C(C)C)C(=O)O` had an IC50 of 21 µM.

`CSCC[C@H](NC(=O)[C@H](Cc1ccccc1)NC(=O)[C@@H](NCc1cc(Br)ccc1O)C(C)C)C(=O)O` displayed an IC50 of 0.45 µM.

In the case of `CSCC[C@H](NC(=O)[C@H](Cc1ccccc1)NC(=O)[C@@H](NCc1ccccc1SC(c1ccccc1)c1ccccc1)C(C)C)C(=O)O`, the IC50 is about 100 µM.

`COCCOCOc1ccc(Cl)cc1CN[C@H](C(=O)N[C@@H](Cc1ccccc1)C(=O)N[C@@H](CCSC)C(=O)O)C(C)C`: the IC50 is 0.76 µM.

With `CSCC[C@H](NC(=O)[C@H](Cc1ccccc1)NC(=O)[C@@H](NCc1ccccc1O)C(C)C)C(=O)O`, the midpoint of inhibition, the IC50, lay at 2.4 µM.

As for `COCCOCOc1ccc(C(F)(F)F)cc1CN[C@H](C(=O)N[C@@H](Cc1ccccc1)C(=O)N[C@@H](CCSC)C(=O)O)C(C)C`, the IC50 is 16 µM.

In turn, `COc1ccc(O)c(CN[C@H](C(=O)N[C@@H](Cc2ccccc2)C(=O)N[C@@H](CCSC)C(=O)O)C(C)C)c1` showed a 50% inhibitory concentration (IC50) of 3.8 µM.

`CSCC[C@H](NC(=O)[C@H](Cc1ccccc1)NC(=O)[C@@H](NCc1cc(Cl)ccc1O)C(C)C)C(=O)O` came in with a 50% inhibitory concentration (IC50) of 0.5 µM.

`CSCC[C@H](NC(=O)[C@H](Cc1ccccc1)NC(=O)[C@@H](NCc1cc(O)ccc1O)C(C)C)C(=O)O` came in with an IC50 of 24 µM.

The compound `CSCC[C@H](NC(=O)[C@H](Cc1ccccc1)NC(=O)[C@@H](NCc1cccc(OC/C=C(\C)CC/C=C(\C)CCC=C(C)C)c1O)C(C)C)C(=O)O` gave an IC50 of 70 µM.

For the compound `CSCC[C@H](NC(=O)[C@H](Cc1ccccc1)NC(=O)[C@@H](NCc1cc(C(F)(F)F)ccc1O)C(C)C)C(=O)O`, the 50% inhibitory concentration (IC50) came to 2.1 µM.

In turn, `CSCC[C@H](NC(=O)[C@H](Cc1ccccc1)NC(=O)[C@@H](NCc1ccc(O)cc1)C(C)C)C(=O)O` came in with a half-inhibitory concentration (IC50) of 17 µM.

`CSCC[C@H](NC(=O)[C@H](Cc1ccccc1)NC(=O)[C@@H](NCc1ccccc1S)C(C)C)C(=O)O` registered an IC50 of 22 µM.

As to `CC(C)[C@H](NCc1cc(F)ccc1O)C(=O)N[C@@H](Cc1ccccc1)C(=O)N[C@@H](CC[S+](C)[O-])C(=O)O` (some centres undefined), the IC50 worked out at 1.6 µM.

Regarding `CSCC[C@H](NC(=O)[C@H](Cc1ccccc1)NC(=O)[C@@H](NCc1cccc(F)c1O)C(C)C)C(=O)O`, inhibition was half-maximal at 2.5 µM (IC50).

For `CC[C@H](C)[C@H](NC(=O)[C@@H](NC(=O)[C@@H](N)CS)C(C)C)C(=O)N[C@@H](CCSC)C(=O)O`, it took 0.25 µM to reach half-maximal inhibition (IC50).

As for `CSCC[C@H](NC(=O)[C@H](Cc1ccccc1)NC(=O)[C@@H](NCc1c(O)ccc2ccccc12)C(C)C)C(=O)O`, the half-inhibitory concentration (IC50) turned out to be 6.3 µM.

The target in another assay is T1, Protein farnesyltransferase. Description: Inhibitory activity against Farnesyl transferase; 8.5-27.0. The class given is protein-complex assay.
On to `CSCC[C@H](NC(=O)[C@H](Cc1ccccc1)NC(=O)[C@@H](NCc1cc(C(=O)O)ccc1O)C(C)C)C(=O)O`, for which the IC50 is 8.5 µM.
